Reference: the supplement of paper PMC10307832

Tests used:
Assay in all cases: relative viability (nuclei count vs DMSO), 5 days (fraction); higher = more cells survive
Dabrafenib + Palbociclib = compound: CC(C)(C)c1nc(-c2cccc(NS(=O)(=O)c3c(F)cccc3F)c2F)c(-c2ccnc(N)n2)s1 [Dabrafenib] + CC(=O)c1c(C)c2cnc(Nc3ccc(N4CCNCC4)cn3)nc2n(C2CCCC2)c1=O [Palbociclib] (partner 0.5 µM)
How it was run: (§1)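 The day after seeding in 1536-well plates, lung cancer cell lines were treated by pin tool with a single drug, or with a fixed anchor-drug dose together with five library-drug doses (not always all listed) in √10 steps. After 5 days, a combined fix-and-stain solution (final 0.05% Triton X-100, 1% formaldehyde, 1 ug/ml Hoechst) was added. Nuclei counted on 4× images gave relative viability as treated counts over vehicle counts, reported as the median of duplicate plates.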

VX-702 + Olaparib = compound: NC(=O)c1ccc(N(C(N)=O)c2c(F)cccc2F)nc1-c1ccc(F)cc1F [VX-702] + O=C(c1cc(Cc2n[nH]c(=O)c3ccccc23)ccc1F)N1CCN(C(=O)C2CC2)CC1 [Olaparib] (partner 8 µM)
How it was run: as §1

VX-702 + Palbociclib = compound: NC(=O)c1ccc(N(C(N)=O)c2c(F)cccc2F)nc1-c1ccc(F)cc1F [VX-702] + CC(=O)c1c(C)c2cnc(Nc3ccc(N4CCNCC4)cn3)nc2n(C2CCCC2)c1=O [Palbociclib] (partner 0.5 µM)
How it was run: as §1

VX-702 + Pictilisib = compound: NC(=O)c1ccc(N(C(N)=O)c2c(F)cccc2F)nc1-c1ccc(F)cc1F [VX-702] + CS(=O)(=O)N1CCN(Cc2cc3nc(-c4cccc5[nH]ncc45)nc(N4CCOCC4)c3s2)CC1 [Pictilisib] (partner 1 µM)
How it was run: as §1

Cell Line | relative viability (Dabrafenib + Palbociclib; first compound 0.003 µM) | relative viability (Dabrafenib + Palbociclib; first compound 0.009487 µM) | relative viability (Dabrafenib + Palbociclib; first compound 0.03 µM) | relative viability (Dabrafenib + Palbociclib; first compound 0.09487 µM) | relative viability (Dabrafenib + Palbociclib; first compound 0.3 µM) | relative viability (VX-702 + Olaparib; first compound 0.02 µM) | relative viability (VX-702 + Olaparib; first compound 0.2 µM) | relative viability (VX-702 + Olaparib; first compound 0.6325 µM) | relative viability (VX-702 + Olaparib; first compound 2 µM) | relative viability (VX-702 + Palbociclib; first compound 0.02 µM) | relative viability (VX-702 + Palbociclib; first compound 0.2 µM) | relative viability (VX-702 + Palbociclib; first compound 0.6325 µM) | relative viability (VX-702 + Palbociclib; first compound 2 µM) | relative viability (VX-702 + Pictilisib; first compound 0.02 µM) | relative viability (VX-702 + Pictilisib; first compound 0.2 µM) | relative viability (VX-702 + Pictilisib; first compound 0.6325 µM) | relative viability (VX-702 + Pictilisib; first compound 2 µM)
HCC-78 | 0.366 | 0.481 | 0.414 | 0.426 | 0.498 | 0.743 | 0.671 | 0.83 | 0.867 | 0.493 | 0.486 | 0.513 | 0.487 | 0.224 | 0.17 | 0.176 | 0.237
HCC-44 | 1.01 | 0.956 | 0.943 | 0.842 | 0.983 | 1.01 | 0.982 | 0.989 | 0.963 | 1.01 | 1 | 0.955 | 0.98 | 0.726 | 0.552 | 0.479 | 0.522
LXF-289 | 0.59 | 0.594 | 0.673 | 0.62 | 0.616 | 1.08 | 1.07 | 1.06 | 1.1 | 0.616 | 0.563 | 0.59 | 0.616 | 0.85 | 0.785 | 0.818 | 0.784
201T | 0.368 | 0.366 | 0.368 | 0.318 | 0.376 | 0.832 | 0.882 | 0.894 | 0.898 | 0.349 | 0.345 | 0.347 | 0.336 | 0.698 | 0.634 | 0.676 | 0.668
NCI-H2023 | 0.419 | 0.417 | 0.48 | 0.371 | 0.421 | 0.459 | 0.461 | 0.552 | 0.637 | 0.381 | 0.347 | 0.404 | 0.436 | 0.238 | 0.228 | 0.192 | 0.221
Calu-6 | – | – | – | – | – | – | 0.597 | 0.65 | 0.64 | – | – | – | – | 0.973 | 1.05 | 0.996 | 1.11
NCI-H1437 | 0.307 | 0.35 | 0.363 | 0.384 | 0.413 | 0.656 | 0.633 | 0.643 | 0.691 | 0.308 | 0.318 | 0.319 | 0.318 | 0.499 | 0.428 | 0.446 | 0.53
HCC-827 | 0.465 | 0.3 | 0.374 | – | 0.525 | 0.648 | 0.603 | 0.59 | 0.562 | 0.452 | 0.462 | 0.446 | 0.316 | 0.856 | 0.701 | 0.99 | 0.355
HARA | – | 0.325 | – | 0.304 | 0.338 | 0.87 | – | 0.779 | 0.964 | 0.278 | 0.227 | 0.226 | 0.254 | 0.361 | 0.412 | 0.325 | 0.332
NCI-H2342 | 0.511 | 0.566 | 0.474 | 0.608 | 0.523 | 0.401 | 0.457 | 0.475 | 0.466 | 0.511 | 0.606 | 0.512 | 0.539 | – | – | – | –
NCI-H1703 | – | – | – | – | – | 0.415 | 0.361 | 0.315 | 0.47 | – | – | – | – | 0.229 | 0.277 | 0.218 | 0.263
